According to PubChem BioAssay (NCI):
Where “and” joins values, the source holds several entries; their conditions need not be identical. Equal entries are not always repeated.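 48-hour exposure; five concentrations; linearly interpolated endpoints. GI50: concentration for 50% inhibition of growth. TGI is the concentration that stops growth completely.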

Key:
Assay in all cases: NCI anticancer screen, dose series, 48 h
COLO 205 colon = system: COLO 205 colon
HCT-15 colon = system: HCT-15 colon
HS 578T breast = system: HS 578T breast
NCI-H23 lung = system: NCI-H23 lung
PC-3 prostate = system: PC-3 prostate
RPMI-8226 leukemia = system: RPMI-8226 leukemia
SF-268 CNS = system: SF-268 CNS
SR leukemia = system: SR leukemia
SW-620 colon = system: SW-620 colon
UACC-62 melanoma = system: UACC-62 melanoma

COc1c(O)cc2c(c1CC=C(C)C)OC(=O)c1c(cc(O)c(CC=C(C)C)c1O)O2
GI50 (COLO 205 colon): 4.51 µM | TGI (COLO 205 colon): 8.45 µM | GI50 (HCT-15 colon): 3.95 µM | TGI (HCT-15 colon): 8.94 µM | GI50 (HS 578T breast): 2.96 µM | TGI (HS 578T breast): 7.4 µM | GI50 (NCI-H23 lung): 3.45 µM | TGI (NCI-H23 lung): 8.29 µM | GI50 (PC-3 prostate): 4.87 µM | TGI (PC-3 prostate): 9.7 µM | GI50 (RPMI-8226 leukemia): 5.95 µM | TGI (RPMI-8226 leukemia): 15.7 µM | GI50 (SF-268 CNS): 4.26 µM | TGI (SF-268 CNS): 7.82 µM | GI50 (SR leukemia): 3.95 µM | TGI (SR leukemia): 10.5 µM | GI50 (SW-620 colon): 3.42 µM | TGI (SW-620 colon): 7.05 µM | GI50 (UACC-62 melanoma): 3.74 µM | TGI (UACC-62 melanoma): 7.48 µM

NNC(=S)N/N=C/c1ccccn1
GI50 (COLO 205 colon): 2.39 µM | TGI (COLO 205 colon): > 100 µM | GI50 (HCT-15 colon): 1.03 µM | TGI (HCT-15 colon): > 100 µM | GI50 (HS 578T breast): 3.86 µM | TGI (HS 578T breast): > 100 µM | GI50 (NCI-H23 lung): 3.54 µM | TGI (NCI-H23 lung): > 100 µM | GI50 (PC-3 prostate): 5.62 µM | TGI (PC-3 prostate): > 100 µM | GI50 (RPMI-8226 leukemia): 2.44 µM | TGI (RPMI-8226 leukemia): > 100 µM | GI50 (SF-268 CNS): 1.58 µM | TGI (SF-268 CNS): > 100 µM | GI50 (SR leukemia): 0.884 µM | TGI (SR leukemia): 90.1 µM | GI50 (SW-620 colon): 3.89 µM | TGI (SW-620 colon): > 100 µM | GI50 (UACC-62 melanoma): 2.03 µM | TGI (UACC-62 melanoma): 14 µM

Oc1c(CCl)cc(Cl)cc1Cc1cc(Cl)cc(Cc2cc(Cl)cc(CCl)c2O)c1O
GI50 (COLO 205 colon): 7.14 µM | TGI (COLO 205 colon): 26.7 µM | GI50 (HCT-15 colon): 2.88 µM | TGI (HCT-15 colon): 12 µM | GI50 (HS 578T breast): 3.02 µM | TGI (HS 578T breast): 22.6 µM | GI50 (NCI-H23 lung): 2.18 µM | TGI (NCI-H23 lung): 7.31 µM | GI50 (PC-3 prostate): 2.7 µM | TGI (PC-3 prostate): 10.1 µM | GI50 (RPMI-8226 leukemia): 3.08 µM | TGI (RPMI-8226 leukemia): 91.7 µM | GI50 (SF-268 CNS): 3.18 µM | TGI (SF-268 CNS): 62.1 µM | GI50 (SR leukemia): 2.85 µM | TGI (SR leukemia): 41 µM | GI50 (SW-620 colon): 3.92 µM | TGI (SW-620 colon): 14.2 µM | GI50 (UACC-62 melanoma): 2.9 µM | TGI (UACC-62 melanoma): 11.1 µM

COc1ccc(/C=C/C(=O)c2ccc(B(O)O)cc2)cc1O
GI50 (COLO 205 colon): 16.2 µM | TGI (COLO 205 colon): 32 µM | GI50 (HCT-15 colon): 4.95 µM | TGI (HCT-15 colon): > 39.3 µM | GI50 (HS 578T breast): 12.6 µM | TGI (HS 578T breast): > 100 µM | GI50 (NCI-H23 lung): 21 µM | TGI (NCI-H23 lung): 69.4 µM | GI50 (PC-3 prostate): 15 µM | TGI (PC-3 prostate): 50.1 µM | GI50 (RPMI-8226 leukemia): 3.27 µM | TGI (RPMI-8226 leukemia): 23 µM | GI50 (SF-268 CNS): 19.9 µM | TGI (SF-268 CNS): 78.8 µM | GI50 (SR leukemia): 3.2 µM | TGI (SR leukemia): > 100 µM | GI50 (SW-620 colon): 3.83 µM | TGI (SW-620 colon): 22 µM | GI50 (UACC-62 melanoma): 14.3 µM | TGI (UACC-62 melanoma): 33.2 µM

Cc1cc(C)c2c(=O)cc(-c3ccc(F)cc3)[nH]c2n1
TGI (COLO 205 colon): > 100 µM | TGI (HCT-15 colon): > 100 µM | TGI (HS 578T breast): > 100 µM | TGI (NCI-H23 lung): > 100 µM | GI50 (PC-3 prostate): 30.1 µM | TGI (PC-3 prostate): > 100 µM | TGI (RPMI-8226 leukemia): > 100 µM | TGI (SF-268 CNS): > 100 µM | TGI (SR leukemia): 67.7 µM | TGI (SW-620 colon): > 100 µM | TGI (UACC-62 melanoma): > 100 µM

N#CC1(C#N)C2C=CC(C3CC=CC32)C1(C#N)C#N (stereo unspecified)
GI50 (COLO 205 colon): 5.5 µM | TGI (COLO 205 colon): 4.3 µM and 13.5 µM | GI50 (HCT-15 colon): 13.2 µM | TGI (HCT-15 colon): 4.17 µM and 35.9 µM | TGI (HS 578T breast): > 50 µM | TGI (NCI-H23 lung): 19.8 µM | TGI (PC-3 prostate): 16.2 µM | GI50 (RPMI-8226 leukemia): 8.86 µM | TGI (RPMI-8226 leukemia): 4.89 µM and 21.1 µM | TGI (SF-268 CNS): 22.6 µM | GI50 (SR leukemia): 7.6 µM | TGI (SR leukemia): 7.12 µM and 17.6 µM | GI50 (SW-620 colon): 2.64 µM | TGI (SW-620 colon): 5.03 µM and 22.6 µM | TGI (UACC-62 melanoma): 16.9 µM

CCOC(=O)Nc1ccc2c3c(cccc13)-c1ccccc1-2
GI50 (COLO 205 colon): 4.25 µM | TGI (COLO 205 colon): > 100 µM | GI50 (HCT-15 colon): 4.32 µM | TGI (HCT-15 colon): > 100 µM | GI50 (HS 578T breast): 3.91 µM | TGI (HS 578T breast): > 100 µM | GI50 (NCI-H23 lung): 98.1 µM | TGI (NCI-H23 lung): > 100 µM | GI50 (PC-3 prostate): 9.45 µM | TGI (PC-3 prostate): > 100 µM | GI50 (RPMI-8226 leukemia): 5.51 µM | TGI (RPMI-8226 leukemia): > 100 µM | GI50 (SF-268 CNS): 33.3 µM | TGI (SF-268 CNS): > 100 µM | GI50 (SR leukemia): 4.36 µM | TGI (SR leukemia): > 100 µM | GI50 (SW-620 colon): 3.92 µM | TGI (SW-620 colon): > 100 µM | GI50 (UACC-62 melanoma): 3.71 µM | TGI (UACC-62 melanoma): > 100 µM

CC(=O)NS(=O)(=O)c1ccc(-n2nc(-c3ccccc3)cc2-c2cc(O)ccc2O)cc1
GI50 (COLO 205 colon): 44 µM | TGI (COLO 205 colon): > 100 µM | GI50 (HCT-15 colon): > 100 µM | TGI (HCT-15 colon): > 100 µM | GI50 (HS 578T breast): > 100 µM | TGI (HS 578T breast): > 100 µM | GI50 (NCI-H23 lung): > 100 µM | TGI (NCI-H23 lung): > 100 µM | GI50 (PC-3 prostate): > 100 µM | TGI (PC-3 prostate): > 100 µM | GI50 (RPMI-8226 leukemia): > 100 µM | TGI (RPMI-8226 leukemia): > 100 µM | GI50 (SF-268 CNS): > 100 µM | TGI (SF-268 CNS): > 100 µM | GI50 (SR leukemia): > 100 µM | TGI (SR leukemia): > 100 µM | GI50 (SW-620 colon): > 100 µM | TGI (SW-620 colon): > 100 µM | GI50 (UACC-62 melanoma): 62 µM | TGI (UACC-62 melanoma): > 100 µM

CC(=O)N[C@@H](Cc1ccc(OP(=O)(O)O)cc1)C(=O)N[C@H]1CCC(=O)N2CCC[C@@H](C(=O)NCc3cccc4ccccc34)N2C1=O
GI50 (COLO 205 colon): > 25 µM | TGI (COLO 205 colon): > 25 µM | GI50 (HCT-15 colon): > 25 µM | TGI (HCT-15 colon): > 25 µM | GI50 (HS 578T breast): > 25 µM | TGI (HS 578T breast): > 25 µM | GI50 (NCI-H23 lung): > 25 µM | TGI (NCI-H23 lung): > 25 µM | GI50 (PC-3 prostate): > 25 µM | TGI (PC-3 prostate): > 25 µM | GI50 (RPMI-8226 leukemia): > 25 µM | TGI (RPMI-8226 leukemia): > 25 µM | GI50 (SF-268 CNS): > 25 µM | TGI (SF-268 CNS): > 25 µM | GI50 (SR leukemia): > 25 µM | TGI (SR leukemia): > 25 µM | GI50 (SW-620 colon): > 25 µM | TGI (SW-620 colon): > 25 µM | GI50 (UACC-62 melanoma): > 25 µM | TGI (UACC-62 melanoma): > 25 µM

CSc1nc(SC)c2c(C)cn(Cc3ccccc3)c2n1
TGI (COLO 205 colon): > 100 µM | TGI (HCT-15 colon): > 100 µM | TGI (HS 578T breast): > 100 µM | TGI (NCI-H23 lung): > 100 µM | TGI (PC-3 prostate): > 100 µM | TGI (RPMI-8226 leukemia): > 100 µM | TGI (SF-268 CNS): > 100 µM | TGI (SR leukemia): > 100 µM | TGI (SW-620 colon): > 100 µM | TGI (UACC-62 melanoma): > 100 µM

O=C(NCCCNc1cc(-c2cn(-c3ccccc3)nc2-c2cccc(O)c2)ccn1)c1ccc(F)cc1
GI50 (COLO 205 colon): 1.6 µM | TGI (COLO 205 colon): 3.34 µM | GI50 (HCT-15 colon): 1.77 µM | TGI (HCT-15 colon): 4.7 µM | GI50 (HS 578T breast): 2.58 µM | TGI (HS 578T breast): 10.8 µM | GI50 (NCI-H23 lung): 2.81 µM | TGI (NCI-H23 lung): 14.8 µM | GI50 (PC-3 prostate): 2.81 µM | TGI (PC-3 prostate): 15.7 µM | GI50 (RPMI-8226 leukemia): 1.94 µM | TGI (RPMI-8226 leukemia): 5.55 µM | GI50 (SF-268 CNS): 2.99 µM | TGI (SF-268 CNS): 26.9 µM | GI50 (SR leukemia): 1.65 µM | TGI (SR leukemia): 6.53 µM | GI50 (SW-620 colon): 2.95 µM | TGI (SW-620 colon): 9.55 µM | GI50 (UACC-62 melanoma): 2.05 µM | TGI (UACC-62 melanoma): 5.08 µM

O=C(/C=C/c1cccnc1)c1ccccc1
GI50 (COLO 205 colon): 13.9 µM | TGI (COLO 205 colon): 28.8 µM | GI50 (HCT-15 colon): 4.1 µM | TGI (HCT-15 colon): 20.2 µM | GI50 (HS 578T breast): 10.5 µM | TGI (HS 578T breast): 32.7 µM | GI50 (NCI-H23 lung): 17.3 µM | TGI (NCI-H23 lung): 39.5 µM | GI50 (PC-3 prostate): 11 µM | TGI (PC-3 prostate): 26.5 µM | GI50 (RPMI-8226 leukemia): 2.46 µM | TGI (RPMI-8226 leukemia): 6.24 µM | GI50 (SF-268 CNS): 14.4 µM | TGI (SF-268 CNS): 30 µM | GI50 (SR leukemia): 2 µM | TGI (SR leukemia): 6.21 µM | GI50 (SW-620 colon): 1.92 µM | TGI (SW-620 colon): 4.21 µM | GI50 (UACC-62 melanoma): 5.14 µM | TGI (UACC-62 melanoma): 19.2 µM
